Results published in patent US20240108732A1, “Formulated and/or Co-Formulated Lipid Nanocarriers Compositions Containing Toll-Like Receptor ("TLR") Agonist Prodrugs Useful In The Treatment of Cancer and Methods Thereof” (Nammi Therapeutics, Inc., priority 2022, published 2024).

Tests used:
human TLR8 = target: T1, human TLR8 (Homo sapiens, UniProt Q9NR97); experiment: Example 15: HEK-Blue hTLR8 cells / QUANTI-Blue SEAP assay; assay type: cell-based; conditions: from RAW-Blue and HEK-Blue hTLR8 results
T1 construct: host or cells: HEK-Blue hTLR8 cells
T1 sequence (Q9NR97 27-1041): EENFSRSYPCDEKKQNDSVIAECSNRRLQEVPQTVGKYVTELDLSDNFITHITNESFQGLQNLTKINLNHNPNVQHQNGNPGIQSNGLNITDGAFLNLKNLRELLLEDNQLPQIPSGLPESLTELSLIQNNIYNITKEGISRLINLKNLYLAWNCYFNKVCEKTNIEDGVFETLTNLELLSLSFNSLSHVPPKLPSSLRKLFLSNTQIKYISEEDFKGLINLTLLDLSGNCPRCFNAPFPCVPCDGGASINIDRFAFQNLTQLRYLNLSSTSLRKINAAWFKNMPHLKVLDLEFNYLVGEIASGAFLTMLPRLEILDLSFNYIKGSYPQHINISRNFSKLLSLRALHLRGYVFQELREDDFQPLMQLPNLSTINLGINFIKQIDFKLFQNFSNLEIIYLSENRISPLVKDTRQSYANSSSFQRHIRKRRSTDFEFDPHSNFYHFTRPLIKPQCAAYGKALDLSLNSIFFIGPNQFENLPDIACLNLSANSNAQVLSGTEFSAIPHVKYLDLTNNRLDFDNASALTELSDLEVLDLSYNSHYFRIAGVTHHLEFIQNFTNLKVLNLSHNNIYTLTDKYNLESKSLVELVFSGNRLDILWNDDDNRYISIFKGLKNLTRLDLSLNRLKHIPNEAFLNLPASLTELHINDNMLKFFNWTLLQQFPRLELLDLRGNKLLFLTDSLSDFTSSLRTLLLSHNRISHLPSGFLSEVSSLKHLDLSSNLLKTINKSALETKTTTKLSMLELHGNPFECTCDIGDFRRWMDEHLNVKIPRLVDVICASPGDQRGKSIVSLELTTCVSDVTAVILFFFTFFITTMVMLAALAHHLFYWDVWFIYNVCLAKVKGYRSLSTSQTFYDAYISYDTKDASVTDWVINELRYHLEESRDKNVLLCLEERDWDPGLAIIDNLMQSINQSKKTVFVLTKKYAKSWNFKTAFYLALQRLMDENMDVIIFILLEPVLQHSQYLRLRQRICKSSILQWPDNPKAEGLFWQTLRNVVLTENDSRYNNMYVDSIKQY
Source text: In another experiment, in vitro biological activity of SLNP-TR12 specificity to TLR7 was confirmed using the following experiment. […] It is noted that despite Raw-Blue cells that express a variety of TLRs including TLR7 and TLR8, the HEK-Blue™ hTLR8 cells dominantly express the human TLR8 gene and an NF-κB/AP-1-inducible SEAP (secreted embryonic alkaline phosphatase) reporter gene. Thus, SEAP levels produced upon TLR8 stimulation can be readily determined by performing the assay in HEK-Blue™ Detection.
Concurrently, HEK-Blue TLR8 were incubated with SLNP-TR5 or SLNP-TR12 at different concentrations. After 24 h incubation with the compounds, TLR stimulation was assessed by measuring the levels of SEAP optimal density (OD) using QUANTI-Blue™ assay. ODs were normalized to the control (untreated) group (See, FIG. 23(B)).

TLR7 = target: T2, TLR7 (Mus musculus, UniProt P58681); experiment: Example 13: RAW-Blue cells / QUANTI-Blue SEAP reporter assay; assay type: cell-based; conditions: 24 h incubation
T2 construct: Raw-Blue cells that express a variety of TLRs including TLR7 and TLR8; host or cells: RAW-Blue cells
T2 sequence (P58681 27-1050): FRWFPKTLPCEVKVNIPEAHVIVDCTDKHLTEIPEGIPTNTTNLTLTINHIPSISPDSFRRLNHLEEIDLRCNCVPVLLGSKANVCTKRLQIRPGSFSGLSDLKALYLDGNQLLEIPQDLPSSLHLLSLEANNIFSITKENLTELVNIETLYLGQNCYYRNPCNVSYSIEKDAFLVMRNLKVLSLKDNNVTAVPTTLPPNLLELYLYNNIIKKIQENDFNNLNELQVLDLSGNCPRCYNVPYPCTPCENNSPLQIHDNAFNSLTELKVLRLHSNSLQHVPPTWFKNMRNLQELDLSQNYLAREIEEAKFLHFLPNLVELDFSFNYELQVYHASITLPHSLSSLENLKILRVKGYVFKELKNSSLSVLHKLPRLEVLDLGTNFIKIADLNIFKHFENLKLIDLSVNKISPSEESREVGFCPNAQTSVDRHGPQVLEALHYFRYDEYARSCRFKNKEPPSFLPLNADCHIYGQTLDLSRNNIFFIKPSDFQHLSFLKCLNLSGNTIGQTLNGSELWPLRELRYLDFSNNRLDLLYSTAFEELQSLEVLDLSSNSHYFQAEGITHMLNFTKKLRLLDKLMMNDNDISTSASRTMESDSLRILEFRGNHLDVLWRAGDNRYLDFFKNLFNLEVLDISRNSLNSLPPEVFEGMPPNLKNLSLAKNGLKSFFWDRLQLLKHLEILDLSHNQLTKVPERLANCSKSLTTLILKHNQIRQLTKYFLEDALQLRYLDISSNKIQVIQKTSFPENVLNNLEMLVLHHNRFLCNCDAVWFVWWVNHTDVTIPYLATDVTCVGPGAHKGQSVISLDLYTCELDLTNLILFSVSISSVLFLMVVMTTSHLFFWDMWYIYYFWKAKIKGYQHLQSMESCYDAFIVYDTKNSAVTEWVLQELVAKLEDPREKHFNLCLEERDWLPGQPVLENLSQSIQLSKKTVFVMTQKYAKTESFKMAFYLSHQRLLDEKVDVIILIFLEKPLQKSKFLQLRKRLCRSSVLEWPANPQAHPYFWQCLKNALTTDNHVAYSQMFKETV
Description: By way of background, RAW-Blue™ Cells and QUANTI-Blue™ (InvivoGen, San Diego, CA) assay were utilized. Raw Blue™ express […] Toll-like receptors (“TLRs”) and an NF-κB/AP-1-inducible SEAP (secreted embryonic alkaline phosphatase) reporter gene. Stimulation of these cells with TR12 leads to NF-κB activation through TLR7 which can be measured by detection of SEAP levels. Briefly, RAW-Blue™ Cells were incubated with TR12-SA (TR12-Stearic Acid) and SLNP-TR12 (TR12 Stearic Acid in Solid Lipid Nanoparticle from) at different concentration. After 24 h incubation with the compounds, TLR stimulation was assessed by measuring the levels of SEAP optimal density (OD) using QUANTI-Blue™ assay. ODs were normalized to the control (untreated) group. […] (See, FIG. 21).

SMILES | specificity TLR7 versus TLR8 (human TLR8) | TLR stimulation (SEAP OD normalized to untreated control) (TLR7)
CCCCCCCCCCCCCCCCCC(=O)NCCCCOn1c(CCCC)nc2c(N)nc3ccccc3c21 [TR5, Telratolimod] | stimulates both TLR7 and TLR8 | 
CCCCCCCCCCCCCCCCCC(=O)OCOC(=O)N1CCN(c2ccc(Cn3c(=O)[nH]c4c(N)nc(NCCCC)nc43)cn2)CC1 [TR12 prodrug] |  | stimulation of TLR-7
